Patent US8765669B2, “Glycosylated GLP-1 peptide” (Glytech, Inc., priority 2008, dated 2014)

The compounds below were run against T1, DPP-IV (dipeptidyl peptidase IV from porcine kidney) (Sus scrofa, UniProt P22411) (assay: Test of resistance to dipeptidyl peptidase IV (DPP-IV)). Conditions: half-life (t1/2) in DPP-IV solution at 37° C., GLP-1 of Comparative Example 1 defined as standard (=1).
T1 construct: dipeptidyl peptidase IV from porcine kidney, product of SIGMA; purchased SIGMA; host or cells: porcine kidney (tissue-derived enzyme)
T1 sequence (P22411 whole entry): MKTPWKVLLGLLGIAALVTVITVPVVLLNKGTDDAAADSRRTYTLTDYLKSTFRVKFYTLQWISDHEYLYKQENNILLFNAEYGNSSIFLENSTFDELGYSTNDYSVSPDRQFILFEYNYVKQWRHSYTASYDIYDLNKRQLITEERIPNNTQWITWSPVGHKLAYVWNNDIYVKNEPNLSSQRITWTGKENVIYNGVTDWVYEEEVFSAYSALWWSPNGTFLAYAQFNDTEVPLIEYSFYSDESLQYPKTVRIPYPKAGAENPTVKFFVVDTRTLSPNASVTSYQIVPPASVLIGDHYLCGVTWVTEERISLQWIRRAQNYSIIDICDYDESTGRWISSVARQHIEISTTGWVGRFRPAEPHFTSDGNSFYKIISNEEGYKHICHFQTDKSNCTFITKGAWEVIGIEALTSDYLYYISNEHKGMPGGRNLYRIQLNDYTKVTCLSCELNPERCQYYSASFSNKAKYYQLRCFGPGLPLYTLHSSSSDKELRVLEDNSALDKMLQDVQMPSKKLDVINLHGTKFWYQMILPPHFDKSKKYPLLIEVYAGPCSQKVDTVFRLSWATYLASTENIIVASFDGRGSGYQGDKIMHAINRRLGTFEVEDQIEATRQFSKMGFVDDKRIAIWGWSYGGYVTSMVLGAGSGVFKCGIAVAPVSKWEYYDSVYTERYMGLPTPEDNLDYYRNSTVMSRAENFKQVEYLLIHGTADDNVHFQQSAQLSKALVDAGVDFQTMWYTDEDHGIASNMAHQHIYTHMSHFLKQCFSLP
Assay type: in vitro ADME
Protocol: Each solution mixture was adjusted with 100 mM sodium phosphate buffer to 100 μl in total and allowed to react at 37° C. A 10 μaliquot of the reaction solution was mixed with 15 μl of 10% trifluoroacetic acid prepared in advance in another Eppendorf tube.

SMILES	Relative Resistance
CC[C@H](C)[C@H](NC(=O)[C@H](Cc1ccccc1)NC(=O)[C@H](CCC(=O)O)NC(=O)[C@H](CCCCN)NC(=O)[C@H](C)NC(=O)[C@H](C)NC(=O)[C@H](CCC(N)=O)NC(=O)CNC(=O)[C@H](CCC(=O)O)NC(=O)[C@H](CC(C)C)NC(=O)[C@H](Cc1ccc(O)cc1)NC(=O)[C@H](CO)NC(=O)[C@H](CO)NC(=O)[C@@H](NC(=O)[C@H](CC(=O)O)NC(=O)[C@H](CO)NC(=O)[C@@H](NC(=O)[C@H](Cc1ccccc1)NC(=O)[C@@H](NC(=O)CNC(=O)[C@H](CCC(=O)O)NC(=O)[C@H](C)NC(=O)[C@@H](N)Cc1c[nH]cn1)[C@@H](C)O)[C@@H](C)O)C(C)C)C(=O)N[C@@H](CSCC(=O)N[C@@H]1O[C@H](CO)[C@@H](O)[C@H](O[C@@H]2O[C@H](C(=O)O)[C@@H](O[C@@H]3O[C@H](CO)[C@@H](O)[C@H](O[C@@H]4O[C@H](C(=O)O)[C@@H](O[C@@H]5O[C@H](CO)[C@@H](O)[C@H](O[C@@H]6O[C@H](C(=O)O)[C@@H](O[C@@H]7O[C@H](CO)[C@@H](O)[C@H](O[C@@H]8O[C@H](C(=O)O)[C@@H](O)[C@H](O)[C@H]8O)[C@H]7NC(C)=O)[C@H](O)[C@H]6O)[C@H]5NC(C)=O)[C@H](O)[C@H]4O)[C@H]3NC(C)=O)[C@H](O)[C@H]2O)[C@H]1NC(C)=O)C(=O)N[C@@H](Cc1c[nH]c2ccccc12)C(=O)N[C@@H](CC(C)C)C(=O)N[C@H](C(=O)N[C@@H](CCCCN)C(=O)NCC(=O)N[C@@H](CCCNC(=N)N)C(=O)NCC(=O)O)C(C)C [Example 7, 30Cys-hyaluronic acid octasaccharide (HA-8) Added GLP-1 Peptide]	3.4
CC[C@H](C)[C@H](NC(=O)[C@H](Cc1ccccc1)NC(=O)[C@H](CCC(=O)O)NC(=O)[C@H](CCCCN)NC(=O)[C@H](C)NC(=O)[C@H](C)NC(=O)[C@H](CCC(N)=O)NC(=O)CNC(=O)[C@H](CCC(=O)O)NC(=O)[C@H](CC(C)C)NC(=O)[C@H](Cc1ccc(O)cc1)NC(=O)[C@H](CO)NC(=O)[C@H](CO)NC(=O)[C@@H](NC(=O)[C@H](CC(=O)O)NC(=O)[C@H](CO)NC(=O)[C@@H](NC(=O)[C@H](Cc1ccccc1)NC(=O)[C@@H](NC(=O)CNC(=O)[C@H](CCC(=O)O)NC(=O)[C@H](C)NC(=O)[C@@H](N)Cc1c[nH]cn1)[C@@H](C)O)[C@@H](C)O)C(C)C)C(=O)N[C@@H](C)C(=O)N[C@@H](Cc1c[nH]c2ccccc12)C(=O)N[C@@H](CC(C)C)C(=O)N[C@H](C(=O)N[C@@H](CCCCN)C(=O)NCC(=O)N[C@@H](CSCC(=O)N[C@@H]1O[C@H](CO)[C@@H](O)[C@H](O[C@@H]2O[C@H](C(=O)O)[C@@H](O[C@@H]3O[C@H](CO)[C@@H](O)[C@H](O[C@@H]4O[C@H](C(=O)O)[C@@H](O)[C@H](O)[C@H]4O)[C@H]3NC(C)=O)[C@H](O)[C@H]2O)[C@H]1NC(C)=O)C(=O)NCC(=O)O)C(C)C [Example 8, 36Cys-hyaluronic acid tetrasaccharide (HA-4) Added GLP-1 Peptide]	2.2
CC[C@H](C)[C@H](NC(=O)[C@H](Cc1ccccc1)NC(=O)[C@H](CCC(=O)O)NC(=O)[C@H](CCCCN)NC(=O)[C@H](C)NC(=O)[C@H](C)NC(=O)[C@H](CCC(N)=O)NC(=O)CNC(=O)[C@H](CCC(=O)O)NC(=O)[C@H](CC(C)C)NC(=O)[C@H](Cc1ccc(O)cc1)NC(=O)[C@H](CO)NC(=O)[C@H](CO)NC(=O)[C@@H](NC(=O)[C@H](CC(=O)O)NC(=O)[C@H](CO)NC(=O)[C@@H](NC(=O)[C@H](Cc1ccccc1)NC(=O)[C@@H](NC(=O)CNC(=O)[C@H](CCC(=O)O)NC(=O)[C@H](C)NC(=O)[C@@H](N)Cc1c[nH]cn1)[C@@H](C)O)[C@@H](C)O)C(C)C)C(=O)N[C@@H](CSCC(=O)N[C@@H]1O[C@H](CO)[C@@H](O)[C@H](O[C@@H]2O[C@H](C(=O)O)[C@@H](O[C@@H]3O[C@H](CO)[C@@H](O)[C@H](O[C@@H]4O[C@H](C(=O)O)[C@@H](O[C@@H]5O[C@H](CO)[C@@H](O)[C@H](O[C@@H]6O[C@H](C(=O)O)[C@@H](O[C@@H]7O[C@H](CO)[C@@H](O)[C@H](O[C@@H]8O[C@H](C(=O)O)[C@@H](O[C@@H]9O[C@H](CO)[C@@H](O)[C@H](O[C@@H]%10O[C@H](C(=O)O)[C@@H](O[C@@H]%11O[C@H](CO)[C@@H](O)[C@H](O[C@@H]%12O[C@H](C(=O)O)[C@@H](O[C@@H]%13O[C@H](CO)[C@@H](O)[C@H](O[C@@H]%14O[C@H](C(=O)O)[C@@H](O[C@@H]%15O[C@H](CO)[C@@H](O)[C@H](O[C@@H]%16O[C@H](C(=O)O)[C@@H](O)[C@H](O)[C@H]%16O)[C@H]%15NC(C)=O)[C@H](O)[C@H]%14O)[C@H]%13NC(C)=O)[C@H](O)[C@H]%12O)[C@H]%11NC(C)=O)[C@H](O)[C@H]%10O)[C@H]9NC(C)=O)[C@H](O)[C@H]8O)[C@H]7NC(C)=O)[C@H](O)[C@H]6O)[C@H]5NC(C)=O)[C@H](O)[C@H]4O)[C@H]3NC(C)=O)[C@H](O)[C@H]2O)[C@H]1NC(C)=O)C(=O)N[C@@H](Cc1c[nH]c2ccccc12)C(=O)N[C@@H](CC(C)C)C(=O)N[C@H](C(=O)N[C@@H](CCCCN)C(=O)NCC(=O)N[C@@H](CCCNC(=N)N)C(=O)NCC(=O)O)C(C)C [Example 10, 30Cys-hyaluronic acid hexadecasaccharide (HA-16) Added GLP-1 Peptide]	3.9
CC[C@H](C)[C@H](NC(=O)[C@H](Cc1ccccc1)NC(=O)[C@H](CCC(=O)O)NC(=O)[C@H](CCCCN)NC(=O)[C@H](C)NC(=O)[C@H](C)NC(=O)[C@H](CCC(N)=O)NC(=O)CNC(=O)[C@H](CCC(=O)O)NC(=O)[C@H](CC(C)C)NC(=O)[C@H](Cc1ccc(O)cc1)NC(=O)[C@H](CO)NC(=O)[C@H](CO)NC(=O)[C@@H](NC(=O)[C@H](CC(=O)O)NC(=O)[C@H](CO)NC(=O)[C@@H](NC(=O)[C@H](Cc1ccccc1)NC(=O)[C@@H](NC(=O)CNC(=O)[C@H](CCC(=O)O)NC(=O)[C@H](C)NC(=O)[C@@H](N)Cc1c[nH]cn1)[C@@H](C)O)[C@@H](C)O)C(C)C)C(=O)N[C@@H](C)C(=O)N[C@@H](Cc1c[nH]c2ccccc12)C(=O)N[C@@H](CC(C)C)C(=O)N[C@H](C(=O)N[C@@H](CCCCN)C(=O)NCC(=O)N[C@@H](CSCC(=O)N[C@@H]1O[C@H](CO)[C@@H](O)[C@H](O[C@@H]2O[C@H](C(=O)O)[C@@H](O[C@@H]3O[C@H](CO)[C@@H](O)[C@H](O[C@@H]4O[C@H](C(=O)O)[C@@H](O[C@@H]5O[C@H](CO)[C@@H](O)[C@H](O[C@@H]6O[C@H](C(=O)O)[C@@H](O[C@@H]7O[C@H](CO)[C@@H](O)[C@H](O[C@@H]8O[C@H](C(=O)O)[C@@H](O[C@@H]9O[C@H](CO)[C@@H](O)[C@H](O[C@@H]%10O[C@H](C(=O)O)[C@@H](O[C@@H]%11O[C@H](CO)[C@@H](O)[C@H](O[C@@H]%12O[C@H](C(=O)O)[C@@H](O[C@@H]%13O[C@H](CO)[C@@H](O)[C@H](O[C@@H]%14O[C@H](C(=O)O)[C@@H](O[C@@H]%15O[C@H](CO)[C@@H](O)[C@H](O[C@@H]%16O[C@H](C(=O)O)[C@@H](O)[C@H](O)[C@H]%16O)[C@H]%15NC(C)=O)[C@H](O)[C@H]%14O)[C@H]%13NC(C)=O)[C@H](O)[C@H]%12O)[C@H]%11NC(C)=O)[C@H](O)[C@H]%10O)[C@H]9NC(C)=O)[C@H](O)[C@H]8O)[C@H]7NC(C)=O)[C@H](O)[C@H]6O)[C@H]5NC(C)=O)[C@H](O)[C@H]4O)[C@H]3NC(C)=O)[C@H](O)[C@H]2O)[C@H]1NC(C)=O)C(=O)NCC(=O)O)C(C)C [Example 11, 36Cys-hyaluronic acid hexadecasaccharide (HA-16) Added GLP-1 Peptide]	3
